Values joined by “and” are separate entries in the source; they are usually repeats but may differ in a detail not shown here. Equal entries are not always repeated.
Columns and labels:
in vitro = details: human
Description: (§5) THLE-2 (CRL-2706™) were grown in the BEGM Bullet Kit (CC-3170) from Lonza. Besides the additives contained in the kit, the medium was further supplemented with 5 ng/mL EGF (Sigma), 70 ng/mL phosphoethanolamine (Sigma) and 10% FBS (Biological Industries). The plates for the THLE-2 needed to be pre-coated with a mixture of 0.01 mg/mL fibronectin, 0.05 mg/mL of PureCol™ EZ Gel Solution (Sigma) and 0.01 mg/mL of BSA dissolved in BEBM medium (Lonza). The coating medium was aspirated before seeding.
(§6) THLE-2 cells were exposed to the compounds in a 9-point, 2-fold dilution dose response series with a 100 μM as upper limit, for 72 h. Following the 72 h of exposure to the test compounds, cell viability was determined by measuring the concentration of cellular ATP (CellTiter Glo, Promega). The luminescence signal was measured on a Pherastar FS multi-mode plate reader (BMG Labtech). Each data point was tested in a triplicate.
(§7) First, toxicity was assessed in an ATP depletion assay, using THLE-2 cells following a 72 h exposure to a dose response of each of the tested compounds.

QR1 (NQO1) [1] = target: T1, QR1 (NQO1) (Homo sapiens, UniProt P15559); assay: Selectivity assay with QR1 in place of QR2, fluorescence readout; assay type: biochemical
T1 construct: purchased Sigma-Aldrich
Description: (§1) The enzymatic activity of QR2 (10 nM) was measured using menadione (both Sigma-Aldrich) as substrate and dihydrobenzylnicotamide (BNAH; Tocris) as co-substrate (Boutin et al., 2005). The reaction was performed in 50 mM Tris HCl, 150 mM NaCl 0.01% Tween-20 pH=8.5 (Sigma-Aldrich) at room temperature. Briefly, 3 μL of menadione alone (200 μM) or a mixture of menadione and QR2 (200 μM of menadione and 10 nM of QR2) were dispensed in 1536-well black Nunc plates (Thermo-Fisher) using a Multidrop™ Combi Reagent Dispenser (Thermo-Fisher) and pre-incubated with compounds for 10 min. BNAH (200 μM) was then added (3 μL) to the reaction using a BioNex Solutions BNX 1536 plate washer and the plates were incubated for another 10 min. […] The initial HTS was done with approximately 200,000 compounds at a single concentration of 5 μM. The chemical libraries used were Selleck Chemicals Bioactives, the Drug-like set from Enamine, HitFinder collection from Maybridge, Spectrum Collection from Microsource, Lopac from Sigma-Aldrich and the diversity sets from ChemDiv and ChemBridge. Initial “hit” compounds were defined as causing >30% reduction of enzyme activity. Compounds suspected to be fluorescent were re-assayed in an absorbance assay at 350 nm using the same reaction but in a higher volume (100 μL), in a transparent plate (Greiner Bio-One). “Hit” compounds resulting from both the fluorescence and absorbance assay were tested in a dose-response, and median inhibition concentration (IC50) values were determined. In parallel, the same dose response was used in a selectivity assay where QR2 enzyme was replaced by QR1 (also known as—NQO1, 10 nM; Sigma-Aldrich).
(§2) In order to establish a varied, flexible and chemically amenable starting point from which to develop such inhibitors, the inventors ran a standardized QR2 assay (see methods) against ˜200,000 compounds, from a varied assortment of chemical libraries. […] Compounds that replicated the initial hit result were then assayed similarly, against NQO1, to evaluate compound specificity (FIG. 1B). From the HTS, a series of compounds containing a sulfonamide central linker, with an amine on one side and a heterocycle on the other, were identified and selected for SAR development (FIG. 1C).

QR2 [2] = target: T2, QR2 (Homo sapiens, UniProt P16083); assay: QR2 enzymatic activity assay (menadione/BNAH), fluorescence readout; assay type: biochemical; design: purchased Sigma-Aldrich
T2 sequence (P16083 1-231): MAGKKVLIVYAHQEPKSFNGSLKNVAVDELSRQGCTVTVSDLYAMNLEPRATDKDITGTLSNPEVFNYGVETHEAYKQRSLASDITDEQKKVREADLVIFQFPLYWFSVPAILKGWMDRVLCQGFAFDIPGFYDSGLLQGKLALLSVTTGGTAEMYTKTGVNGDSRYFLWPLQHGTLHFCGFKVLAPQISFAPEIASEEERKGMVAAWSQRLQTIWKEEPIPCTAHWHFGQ
Description: (§3) The enzymatic activity of QR2 (10 nM) was measured using menadione (both Sigma-Aldrich) as substrate and dihydrobenzylnicotamide (BNAH; Tocris) as co-substrate (Boutin et al., 2005). The reaction was performed in 50 mM Tris HCl, 150 mM NaCl 0.01% Tween-20 pH=8.5 (Sigma-Aldrich) at room temperature. Briefly, 3 μL of menadione alone (200 μM) or a mixture of menadione and QR2 (200 μM of menadione and 10 nM of QR2) were dispensed in 1536-well black Nunc plates (Thermo-Fisher) using a Multidrop™ Combi Reagent Dispenser (Thermo-Fisher) and pre-incubated with compounds for 10 min. BNAH (200 μM) was then added (3 μL) to the reaction using a BioNex Solutions BNX 1536 plate washer and the plates were incubated for another 10 min. […] The initial HTS was done with approximately 200,000 compounds at a single concentration of 5 μM. The chemical libraries used were Selleck Chemicals Bioactives, the Drug-like set from Enamine, HitFinder collection from Maybridge, Spectrum Collection from Microsource, Lopac from Sigma-Aldrich and the diversity sets from ChemDiv and ChemBridge. Initial “hit” compounds were defined as causing >30% reduction of enzyme activity. […] “Hit” compounds resulting from both the fluorescence and absorbance assay were tested in a dose-response, and median inhibition concentration (IC50) values were determined. In parallel, the same dose response was used in a selectivity assay where QR2 enzyme was replaced by QR1 (also known as—NQO1, 10 nM; Sigma-Aldrich).
(§4) In order to establish a varied, flexible and chemically amenable starting point from which to develop such inhibitors, the inventors ran a standardized QR2 assay (see methods) against ˜200,000 compounds, from a varied assortment of chemical libraries.

QR2 [3] = target: T2, QR2; assay: QR2 enzymatic activity assay (menadione/BNAH), absorbance readout at 350 nm; assay type: biochemical; design: purchased Sigma-Aldrich
Description: as §3, §4

QR1 (NQO1) [4] = target: T1, QR1 (NQO1); assay: Selectivity assay with QR1 in place of QR2, absorbance readout; assay type: biochemical
Description: as §1, §2

HEK293T cells = assay: XTT cell viability assay; assay type: cell-based; details: 3 h incubation, 20 nM-20 μM
Description: HEK293FT cells were cultured with penicillin-streptomycin antibiotics in Invitrogen DMEM (Thermo Fisher Scientific) with 10% fetal bovine serum and L-glutamine and grown to 80-90% confluence in 100 mm plates, while being passaged every 2-3 days. For the XTT assay (Biological Industries), cells were then collected, centrifuged, and resuspended in fresh minimum essential medium, and seeded at 50,000 cells/well in 96-well, poly-L-lysine-coated Nunc black, clear flat-bottomed plates (Thermo Fisher Scientific). The next day, the cells were treated with increasing doses of QR2 inhibitors or vehicle for 3 h, and the XTT assay was then carried out as according to the manufacturer's instructions.

QR2 [5] = target: T2, QR2; assay: Cellular thermal shift assay (CETSA) of QR2 in HEK293T cells; assay type: cell-based; design: endogenous in cells; host or cells: HEK293T
Description: The CETSA assay was performed as described (Miettinen and Björklund, 2014) with some modifications. Briefly, HEK293T cells were trypsinized (Biological Industries), washed in PBS (Sigma-Aldrich), and then suspended in PBS containing protease inhibitor cocktail (Roche). The suspended cells were then divided into two Eppendorf tubes and were treated with either: a compound or DMSO (Sigma-Aldrich) for 1 h at 37° C. under shaking. Following treatment, each sample was divided into PCR tubes (100 μL/tube) and subjected to a temperature gradient (ranging from 63 to 80° C.) for 3 minutes. Cell lysates were obtained by 3-cycles of freeze-thaw using liquid nitrogen and a thermal block set to 25° C. Samples were then centrifuged at 15,000 rpm at 4° C. for 20 min and were subsequently analyzed by western blot targeting QR2 (1:100, Santa Cruz; sc-271665). The isothermal dose response fingerprint (ITDRF) experiments were done using a constant temperature of 73° C. Band intensities were normalized to the highest concentration and superoxide dismutase 1 (SOD1) levels (1:200, Santa Cruz; sc-17767). Analysis of the results were performed according to Jafari et al., (2014) using GraphPad Prism software.
To establish direct target engagement, as well as cell membrane permeability, a cellular thermal shift assay (CETSA) was carried out (see methods), using the leading compounds YB-537, YB-800, and YB-808. Following 1 h preincubation with 5 μM of each of the compounds, or vehicle, thermal aggregation curves (Tagg) of QR2 expressed in HEK293T were measured in increasing temperatures. […] Based on the Tagg curves, the inventors selected 73° C. for isothermal dose-response fingerprint (IDTRF) experiments (FIG. 2B).

THLE-2 cells = assay: Cell toxicity assay (ATP depletion, CellTiter Glo); details: 72 h incubation, CellTiter Glo
Description: as §5, §6, §7

[6] = Cell toxicity assay (ATP depletion, CellTiter Glo); details: human
Description: as §5, §6, §7

T1 sequence (P15559 whole entry): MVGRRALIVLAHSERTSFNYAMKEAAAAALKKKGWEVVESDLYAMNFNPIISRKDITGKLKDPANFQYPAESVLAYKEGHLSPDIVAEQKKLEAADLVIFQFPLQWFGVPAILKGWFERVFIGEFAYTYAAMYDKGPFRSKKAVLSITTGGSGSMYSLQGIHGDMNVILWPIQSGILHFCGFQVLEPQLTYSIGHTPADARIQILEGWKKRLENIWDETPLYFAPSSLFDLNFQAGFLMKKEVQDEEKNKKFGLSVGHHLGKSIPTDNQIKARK

Compound	IC50 at 72 h (in vitro)	IC50 (QR1 (NQO1) [1])	IC50 (QR2 [2])	IC50 (QR2 [3])	IC50 (QR1 (NQO1) [4])	toxicity in XTT assay (HEK293T cells)	thermal stability of QR2 (thermal aggregation curve) versus vehicle (QR2 [5]; 5 μM, 1 h preincubation)	EC50 (QR2 [5]; CETSA at 73° C., read-out: EC50 of QR2 stabilization (isothermal dose-response fingerprint))	median lethal dose (LD50) in THLE cells (THLE-2 cells)	IC50 at 72 h [6]
Cc1cccn2cc(-c3cccc(S(=O)(=O)N(C)C)c3)nc12 [PCM-0213804]	> 100000 nM	> 9.99 µM	0.19 µM	0.02 µM	> 9.99 µM					
Cc1cccn2cc(-c3cccc(S(=O)(=O)NCc4cccnc4)c3)nc12 [PCM-0213814]	> 99000 nM	> 9.99 µM	0.02 µM	0.02 µM	7.18 µM					
Cc1ccc(-c2cn3cccc(C)c3n2)cc1S(=O)(=O)N1CCCCCC1 [PCM-0214338]	> 99000 nM	> 9.99 µM	0.02 µM	0.03 µM	> 9.99 µM					
Cc1ccc(-c2cn3cccc(C)c3n2)cc1S(=O)(=O)N1CCCC1 [YB-808]		> 9.99 µM	0.01 µM		> 9.99 µM	no toxicity	shifts of thermal stability	13 nM	59.7 µM and 59.704 µM	59700 nM
